The source made the active and inactive calls.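 How the source made its calls: active means compounds giving half or more protection of infected cells from virus-caused growth loss, again on retest; inactive means the rest.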 Where a SMILES comes first, the peptide text is derived from it.
Test system: CEM cells HIV-1 protection, formazan growth assay
Assay: NCI AIDS Antiviral Assay
Conditions: for IC50: measured here: growth of uninfected CEM cells
How it was run: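 Protection of CEM cells against HIV-1 measured as cell growth via soluble formazan read-out, with five concentrations tested on both infected and uninfected cells; failure to protect may reflect toxicity.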

SMILES | EC50 [µM] | IC50 [µM] | outcome
O=C(CSc1nnc(Cc2ccccc2)o1)Nc1ccc([N+](=O)[O-])cc1 | > 97.7 | 95.5 | –
NCCN.[O-][Cl+3]([O-])([O-])[O-].[Pd+2].c1ccc(-c2ccccn2)nc1 | > 200 | 30.2 | –
C(=NC12CC3CC(CC(C3)C1)C2)C1CCCCC1 | > 200 | > 200 | –
Nc1ncnc2c1ncn2C1CCCCC(O)C1 (configuration not stated) | – | – | inactive
COC1=C(C)C(=O)C(=O)c2cccnc21 | – | – | inactive
CCOP(=O)(OCC)OP(=O)(OCC)OCC | > 871 | > 871 | –
CC(C)=C[C@@H]1C[C@H](C)[C@H]2CC[C@H](C)[C@H]3C(=O)C(O)=C(C)C(=O)[C@]123 | > 200 | 105 | –
COC1(OC)C2(Cl)C3=CCCC=C3C1(Cl)C(Cl)=C2Cl | – | – | inactive
COc1ccc2c(c1)CCCN1Cc3ccccc3CC21 (configuration not stated) | > 200 | 141 | –
C1Cn2nnnc2N1 | > 2240 | > 2240 | –
Cn1cc(C(=O)C[n+]2ccccc2)c2ccccc21 | > 224 | 81.3 | –
CC(=O)C1C(c2ccccc2)C2(C)OC(=O)C(C#N)C12C (configuration not stated) | – | – | inactive
CCCCNC(=O)OCC(C)(CCC)COC(N)=O (configuration not stated) | > 200 | 148 | –
CC(=O)Nc1ccc2[nH]c(C(=O)N3CC(CCl)c4c3cc([N+](=O)[O-])c3ccccc43)cc2c1 (configuration not stated) | > 2 | 1.7 | –
CC1(C)CC(=O)C2=C(C1)Nn1c(nnc1C(F)(F)F)S2 | > 813 | 355 | –
CN1CCN(CCCCN2c3ccccc3Sc3ccc(C(=O)c4ccccc4)cc32)CC1 | > 100 | 4.47 | –
C/C(=N\NC(=S)N1CC2CCC(CC2)C1)c1cccc(C)n1 | > 31.6 | 0.55 | –
COC(=O)c1ccccc1C1CN=NC12Cc1cc3c(cc1C2=O)CCC3 (configuration not stated) | – | – | inactive
CC(C)=C1C(=O)NC(=O)C1C(N)=O (configuration not stated) | > 200 | > 200 | –
NC(=O)c1c[se]c(C2OC(CO)C(O)C2O)n1 (configuration not stated) | – | – | inactive
Cc1c(NC=C(C#N)C#N)c(=O)n(-c2ccccc2)n1C | > 200 | > 200 | –
c1ccc2c(c1)N=c1ccccc1=P21c2ccccc2Nc2ccccc21 | > 2 | 0.214 | –

SMILES | EC50 [µM] | IC50 [µM] | outcome
COc1ccc2c(c1)[n+](=O)c(C(C)=O)c(C)n2[O-] | > 1000 | 355 | –
c1ccc(CSC(SCc2ccccc2)c2ccccc2)cc1 | > 200 | > 200 | –
CC1C2Cc3ccc(O)cc3C1(C)CCN2C (configuration not stated) | > 129 | > 129 | –
CC(=O)Nc1ccc(NNc2cc(=O)n(C)c(=O)[nH]2)cc1 | > 200 | 2.4 | –
N#Cc1c(N)nc2c3c1NC(=O)C(C(N)=O)C3c1ccccc1O2 (configuration not stated) | > 200 | > 200 | –
CC1=CCC[C@H]2[C@](C)(CC3=CC(=O)C(Sc4ccccc4)=CC3=O)[C@@H](C)CC[C@]12C | > 200 | 1.32 | –
O=S(=O)([O-])[O-].[Fe+2].[OH2+]c1c(Cl)cc(Cl)cc1/C=N/Nc1ccccn1 | – | – | inactive
O=C1NC(=O)[C@@]2(CC[C@@H](O)C2)c2ccncc21 | > 562 | 447 | –
N#Cc1ccc(C=C2C(=O)c3ccccc3C2=O)cc1 | > 72.4 | 46.8 | –
CC(C)(C)[Si](C)(C)OCC1OC(n2ccc(=O)[nH]c2=O)C(OC(=S)Oc2ccccc2)C1O[Si](C)(C)C(C)(C)C (configuration not stated) | > 200 | 2 | –
Cn1c(=O)c([N+](=O)[O-])c2[nH]ncn2c1=O | > 200 | > 200 | –
Cc1ccc(NC(=O)c2cc(S(=O)(=O)N3CCNNC3=O)c(S)cc2Cl)cc1 | 30.2 | 195 | –
O=S(=O)(O)c1ccc2c(N=Nc3ccc(S(=O)(=O)O)c4ccccc34)c(O)c(S(=O)(=O)O)cc2c1 | > 100 | > 100 | inactive
CCOC(=O)NC(=O)c1cn(CCCCCCCCCCC(=O)N2CCN(CCn3cc(C(=O)NC(=O)OCC)c(=O)[nH]c3=O)CC2)c(=O)[nH]c1=O | – | – | inactive
CCOC(=O)c1ccc(CSc2ccccc2C(=O)OCC)c([N+](=O)[O-])c1 | > 7.08 | > 7.08 | –
O=c1cc(-c2ccccc2)c2cc3c(=O)ccoc3cc2o1 | > 3.47 | > 3.47 | –
CCOC(=O)/C(F)=C/c1cccc([N+](=O)[O-])c1 | > 151 | > 151 | –
CC(C)CC(NC(=O)C(Cc1ccc(O)cc1)NC(=O)C(CO)NC(=O)C(C)NC(=O)C(CCCN=C(N)N)NC(=O)C(CCC(N)=O)NC(=O)C(NC(=O)C(N)CCC(=O)O)C(C)C)C(=O)NC(CO)C(=O)NC(CCCCN)C(=O)O (configuration not stated) (H-EVQRASYLSK-OH; configuration not given here) | – | – | inactive
CCNC(=O)c1ccccc1S(C)=O (configuration not stated) | > 200 | > 200 | –
O=C1NCC2(CCN(CC3COc4ccccc4O3)CC2)N1c1ccccc1 (configuration not stated) | > 200 | > 200 | –
COc1ccc(-c2nc(SC3OC(COC(C)=O)C(OC(C)=O)C(OC(C)=O)C3OC(C)=O)n(C3OC(COC(C)=O)C(OC(C)=O)C(OC(C)=O)C3OC(C)=O)c(=O)c2C#N)cc1 (configuration not stated) | – | > 100 | –
COc1ccc(C(OCC2OC(n3ccc(NC(=O)c4ccccc4)nc3=O)CC2OP2(=S)SCCS2)(c2ccccc2)c2ccc(OC)cc2)cc1 (configuration not stated) | > 100 | 44.7 | –

SMILES | EC50 [µM] | IC50 [µM] | outcome
CC(=O)O[C@H]1CC[C@H]2[C@@H]3CCc4cc(O)c(I)cc4[C@H]3CC[C@]12C | > 200 | 12 | –
CC(=O)OCC(=O)[C@@]12OC(C)(C)O[C@@H]1C[C@H]1[C@@H]3CC(C=O)=C4C=C(OCCCl)CC[C@]4(C)[C@@]3(F)[C@@H](O)C[C@@]12C | > 200 | 6.46 | –
Cc1ccc(N(C(=O)CC(=O)NN)C(=O)c2ccccc2Cl)cc1 | > 269 | > 269 | –
O/N=C\c1c2c(cc3c1CCC3)CCC2 | > 200 | > 200 | –
CC1C2CC(CC2=O)C1(C)C (configuration not stated) | > 1620 | > 1620 | –
CC1=CC2=C(C#N)C(=O)OC2(C)C(c2ccccc2)C1 (configuration not stated) | > 200 | 117 | –
CC(C)(C)[Si](C)(C)OCC1OC(n2ccc(=O)[nH]c2=O)C(O[Si](C)(C)C(C)(C)C)/C1=C/C#N (configuration not stated) | > 200 | 8.13 | –
NC1=C(O)/C(=N/NS(=O)(=O)c2ccccc2)C(c2ccc3c(c2)OCO3)O1 (configuration not stated) | > 3.72 | > 3.72 | –
CN1CCN(C(=S)N(C(=O)c2ccc(Cl)cc2)c2ccccc2)CC1 | > 13.8 | > 13.8 | –
Cn1nc2ccc3nccc(N(CCO)CCO)c3c2n1 | > 631 | 31.6 | –
COC(=O)c1ccc(Cl)cc1NC(=O)C1CCCCC1 | – | – | inactive
Nc1ncnc2c1ncn2C1CC(OCc2ccccc2[N+](=O)[O-])C(CO)O1 (configuration not stated) | > 50.1 | 36.3 | –
CC1CN=C(c2ccc(NC(=O)c3ccc(C(=O)Nc4ccc(C5=NCC(C)CN5)cc4)cc3)cc2)NC1 (configuration not stated) | > 200 | 25.1 | –
S=C(N/N=C(\C(=N/NC(=S)N1CCCCC1)c1ccccn1)c1ccccn1)N1CCCCC1 | > 200 | 39.8 | –
CC(=O)NNc1nc(C)c(C(/C=C/c2ccccc2O)=N/NC(=O)c2ccncc2)s1 | > 22.4 | > 22.4 | –
Cc1cc2c(cc1C)C(=O)C1(C2)Cc2c(ccc(C)c2C)C1=O (configuration not stated) | > 100 | > 100 | –
O=C1Nc2ncnn2C1=O | > 52.5 | > 52.5 | –
O=C1C(Cl)C(c2ccc([N+](=O)[O-])cc2)N1n1cnc2ccccc2c1=O (configuration not stated) | > 7.41 | > 7.41 | –
O=C1CC(c2cccc(Br)c2)n2cccc21 (configuration not stated) | – | – | inactive
COc1ccc2c(c1)C(=O)N1CCOC1C2C(=O)O (configuration not stated) | > 955 | > 955 | –
C(=C\c1ccnc2ccccc12)/c1ccnc2ccccc12 | > 13.2 | > 13.2 | –
Nc1ccn(C2CC3OCC3O2)c(=O)n1 (configuration not stated) | > 200 | > 200 | –

SMILES | EC50 [µM] | IC50 [µM] | outcome
COC(=O)C1=C(C(=O)OC)C(C(=O)OC)C(C(=O)OC)C(C(=O)OC)(C(=O)OC)C(C(=O)OC)=C1C(=O)OC (configuration not stated) | – | – | inactive
Cc1ccc(-n2c3nc(=O)n(C)c(=O)c-3cc3c(OCc4ccccc4)cccc32)cc1 | > 19.5 | > 19.5 | –
COc1ccccc1CO[C@]1(C)CNCC(C)(C)NC(=O)[C@@](C)(OCc2ccccc2OC)CNCC(C)(C)NC1=O | > 200 | > 200 | –
O=C(Nc1ccc(Cl)cc1Cl)/C(Cl)=C1/Sc2ccccc2NC1=O | > 6.76 | > 6.76 | –
CCN(CC)CCCNc1c2cc(OC)ccc2nc2cccc([N+](=O)[O-])c12 | > 2 | 0.0407 | –
CNC(=O)OC(C)CN1c2ccccc2Sc2ccccc21 (configuration not stated) | > 200 | 41.7 | –
O=C(OCCN=c1c2ccccc2ccc2ccccc12)c1cc([N+](=O)[O-])cc([N+](=O)[O-])c1 | > 200 | 158 | –
O=c1[nH]c2ccccc2nc1/C=C(\O)c1ccccc1O | > 13.5 | > 13.5 | –
COC(=O)C1C2C1C1C=CC2n2c(=O)n(-c3ccccc3)c(=O)n21 (configuration not stated) | > 200 | > 200 | –
CCCC1=NC(C(F)(F)F)(C(F)(F)F)N=C(N2CCOCC2)O1 | > 200 | > 200 | –
COc1cc(N=Nc2ccccc2)c2nccc(C)c2c1N | – | – | inactive
Brc1ccc(C2SCc3nc4ccccc4n32)cc1 (configuration not stated) | – | – | inactive
CC1=N/C(=C/c2ccc3c(c2)OCO3)C(=O)O1 | > 155 | 105 | –
N.N.O=N[O-].O=N[O-].O=N[O-].O=N[O-].[Co+3].[Cs+] | – | – | inactive
COC(=O)[C@H](CCSC)NC(=O)N[C@H](C)c1ccccc1 | > 200 | > 200 | –
COc1cc(NCCCNCC(C)(C)C)c2ncccc2c1 | > 200 | 81.3 | –
Cc1ccc(/C=C2\CCCCCC2=O)cc1 | > 200 | 182 | –
Cc1cc(=O)oc2c(C)c(OCCCOc3ccc4c(C)cc(=O)oc4c3C)ccc12 | > 32.4 | > 32.4 | –
CCCCC1C(=O)N2c3ccccc3-c3ccccc3N2C1=O | – | – | inactive
O=c1[nH]c2ccccc2nc1/C=C/NC(=S)NCc1ccccc1 | – | – | inactive
Nc1[nH]c(=S)c2c(N)n[nH]c2c1C(=O)Nc1ccc(Cl)cc1 | > 200 | 1.55 | –
